What all share (format): biochemical
One experiment addresses PDE4D3 (Homo sapiens, UniProt Q08499). As to the kind of experiment: Inhibition assay of PDE4D3 enzyme (TR-FRET kit). How it is done: 2. Inhibition assay of PDE4D3 enzyme:
Materials and Instruments:
FAM substrate: A stock solution of 20 μM FAM substrate was diluted to 200 nM with PDE assay buffer. 12.5 μL of the diluted substrate was added to each reaction well.
5 μL of the compound stock solution was added to 45 μL of DMSO to prepare a 1 mM diluent. 5 μL of the 1 mM diluent was added to 45 μL of PDE assay buffer to prepare a gradient dilution starting point. Then, according to the method of adding 5 μL of the previous concentration solution to 15 μL of PDE assay buffer, gradient dilution was carried out for 9 times to prepare compound working solutions with 10 concentrations. The working solutions were added to compound wells at 2.5 μL/well.
PDE4D3: 0.054 μL of a PDE4D3 recombinase stock solution was added to 1500 μL of PDE buffer, and the mixture was added to all compound wells and positive control wells at 10 μL/well. 10 μL of PDE assay buffer was added to substrate control wells.
Binding solution: 3750 μL of binding buffer A and 3750 μL of binding buffer B were mixed well. Then, 150 μL of a binder was added into the mixture and mixed well. 7.5 μL of a Tb donor was added and mixed well. The obtained mixture was added to all wells at 50 μL/well.
S520=Read value of sample 520 nm
S490=Read value of sample 490 nm
Tb520=Read value of Tb only 520 nm
Tb490=Read value of Tb only 490 nm
FRETp=Positive control FRET
FRETsub=Substrate control FRET.
A general note: In TR-FRET formats the signal depends on donor and acceptor labels being close together.

The target of another experiment is PDE2A (Homo sapiens, UniProt O00408). As to the kind of experiment: Selective inhibitory activity assay, PDE2A. The following applies: read-out: Inhibition rate (%) of PDE2A. How it is done: (§1) 7. Selective inhibitory activity assay for PDE1, 2, 3, 5, 7, 10 and 11 enzymes
(§2) The selective specificity of compounds for PDE4 was assessed by assaying single concentrations of the compounds. For example, PDE1a enzyme, PDElc enzyme, PDE2a enzyme, PDE3a enzyme, PDE3b enzyme, PDE5a1 enzyme, PDE7a enzyme, PDE7b enzyme, PDE10a1 enzyme and PDE11a4 enzyme were tested. The selective inhibitory effects of different compounds on the enzymatic activities of PDEIC, PDE2A, PDE3B, PDE5A1, PDE7A, and PDE10A1 at concentrations of 10 μM and 1 μM, respectively, are shown in the table below: […]

The target of a further experiment is PDE3B (Homo sapiens, UniProt Q13370). Put plainly: Selective inhibitory activity assay, PDE3B. The following applies: read-out: Inhibition rate (%) of PDE3B. How it is done: as §1, §2
Another experiment has as its target PDE1C (Homo sapiens, UniProt Q14123). As to the kind of experiment: Selective inhibitory activity assay, PDE1C. The following applies: read-out: Inhibition rate (%) of PDE1C. The procedure:
as §1, §2

For a further experiment, the target named is PDE5A1 (Homo sapiens, UniProt O76074). As to the kind of experiment: Selective inhibitory activity assay, PDE5A1. The following applies: read-out: Inhibition rate (%) of PDE5A1. How it is done:
as §1, §2

The next experiment deals with PDE7A (Homo sapiens, UniProt Q13946). As to the kind of experiment: Selective inhibitory activity assay, PDE7A. The following applies: read-out: Inhibition rate (%) of PDE7A. How it is done: as §1, §2
A further experiment deals with PDE10A1 (Homo sapiens, UniProt Q9Y233). Put plainly: Selective inhibitory activity assay, PDE10A1. The following applies: read-out: Inhibition rate (%) of PDE10A1. The procedure: as §1, §2

Each structure is given as a SMILES string.

One may read the IC50 as the point on the concentration scale where inhibition reaches its midpoint. A high value points to lower potency. What is called inhibition is the drop in the measured response relative to a control, in per cent.

Chain of PDE4D3 (Q08499 1-673 isoform Q08499-2): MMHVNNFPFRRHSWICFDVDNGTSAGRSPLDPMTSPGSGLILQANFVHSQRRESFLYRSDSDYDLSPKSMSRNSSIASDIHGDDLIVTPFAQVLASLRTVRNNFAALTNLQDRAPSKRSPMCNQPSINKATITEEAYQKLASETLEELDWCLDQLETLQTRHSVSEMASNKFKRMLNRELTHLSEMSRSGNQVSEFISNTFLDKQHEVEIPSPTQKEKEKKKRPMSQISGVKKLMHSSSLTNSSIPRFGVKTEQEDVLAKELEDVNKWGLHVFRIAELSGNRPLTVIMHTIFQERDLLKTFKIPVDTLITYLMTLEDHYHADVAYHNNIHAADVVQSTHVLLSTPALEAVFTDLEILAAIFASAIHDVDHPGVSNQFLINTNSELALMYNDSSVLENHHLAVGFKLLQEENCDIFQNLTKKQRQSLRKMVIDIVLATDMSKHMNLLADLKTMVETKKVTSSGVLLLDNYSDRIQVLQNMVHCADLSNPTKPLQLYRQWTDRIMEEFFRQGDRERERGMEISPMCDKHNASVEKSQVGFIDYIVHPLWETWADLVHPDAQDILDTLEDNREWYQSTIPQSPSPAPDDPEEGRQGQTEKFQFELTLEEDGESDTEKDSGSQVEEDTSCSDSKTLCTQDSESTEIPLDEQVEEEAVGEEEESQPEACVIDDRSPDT
Chain of PDE1C (Q14123 whole entry, species assumed): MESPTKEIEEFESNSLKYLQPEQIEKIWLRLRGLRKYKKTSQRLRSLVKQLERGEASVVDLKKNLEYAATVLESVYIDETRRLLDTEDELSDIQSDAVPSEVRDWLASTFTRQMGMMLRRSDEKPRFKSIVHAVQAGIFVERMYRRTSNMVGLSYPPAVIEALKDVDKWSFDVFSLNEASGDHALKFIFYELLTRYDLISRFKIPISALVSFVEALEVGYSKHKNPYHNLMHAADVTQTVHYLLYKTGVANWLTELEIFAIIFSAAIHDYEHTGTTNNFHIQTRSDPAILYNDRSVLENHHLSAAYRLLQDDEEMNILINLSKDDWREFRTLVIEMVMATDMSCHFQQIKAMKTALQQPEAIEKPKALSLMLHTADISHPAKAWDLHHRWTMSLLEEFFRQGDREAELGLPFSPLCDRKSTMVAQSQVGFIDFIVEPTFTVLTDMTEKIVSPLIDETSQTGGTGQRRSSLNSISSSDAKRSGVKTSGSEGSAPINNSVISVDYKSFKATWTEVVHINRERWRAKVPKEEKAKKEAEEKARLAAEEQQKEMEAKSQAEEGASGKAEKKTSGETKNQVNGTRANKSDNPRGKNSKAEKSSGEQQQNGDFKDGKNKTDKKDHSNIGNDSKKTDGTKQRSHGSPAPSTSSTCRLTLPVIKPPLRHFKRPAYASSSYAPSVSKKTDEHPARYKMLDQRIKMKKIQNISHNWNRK
Chain of PDE3B (Q13370 whole entry, species assumed): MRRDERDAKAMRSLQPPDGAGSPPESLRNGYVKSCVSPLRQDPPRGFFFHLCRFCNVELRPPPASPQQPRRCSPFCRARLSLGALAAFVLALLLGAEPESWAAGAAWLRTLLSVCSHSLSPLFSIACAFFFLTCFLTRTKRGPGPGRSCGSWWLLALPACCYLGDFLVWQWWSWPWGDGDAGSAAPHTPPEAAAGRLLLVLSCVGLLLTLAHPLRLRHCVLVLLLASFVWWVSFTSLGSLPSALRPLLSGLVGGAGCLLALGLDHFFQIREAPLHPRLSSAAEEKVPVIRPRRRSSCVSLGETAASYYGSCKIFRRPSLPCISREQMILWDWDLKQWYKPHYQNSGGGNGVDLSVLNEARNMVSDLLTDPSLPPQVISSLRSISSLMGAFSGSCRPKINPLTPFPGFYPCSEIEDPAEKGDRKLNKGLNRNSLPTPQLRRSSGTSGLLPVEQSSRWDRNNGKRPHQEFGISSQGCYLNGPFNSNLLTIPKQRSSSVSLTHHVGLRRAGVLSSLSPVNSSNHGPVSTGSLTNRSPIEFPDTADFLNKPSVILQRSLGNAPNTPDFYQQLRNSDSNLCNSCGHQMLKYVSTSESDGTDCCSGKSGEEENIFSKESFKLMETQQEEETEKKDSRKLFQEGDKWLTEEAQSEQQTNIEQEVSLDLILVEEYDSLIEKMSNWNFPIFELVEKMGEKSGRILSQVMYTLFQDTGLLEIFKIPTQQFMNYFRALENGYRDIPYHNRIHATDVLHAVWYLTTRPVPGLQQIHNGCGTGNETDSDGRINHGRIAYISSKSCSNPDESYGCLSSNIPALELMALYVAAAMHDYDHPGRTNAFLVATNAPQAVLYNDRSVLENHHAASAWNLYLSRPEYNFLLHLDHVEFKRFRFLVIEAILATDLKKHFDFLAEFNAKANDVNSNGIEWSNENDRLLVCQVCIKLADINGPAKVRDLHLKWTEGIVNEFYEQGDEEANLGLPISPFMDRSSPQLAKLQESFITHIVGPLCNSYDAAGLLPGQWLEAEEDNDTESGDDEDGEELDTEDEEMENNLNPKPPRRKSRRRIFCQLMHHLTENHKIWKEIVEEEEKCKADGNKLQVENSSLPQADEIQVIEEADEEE
Chain of PDE7A (Q13946 whole entry, species assumed): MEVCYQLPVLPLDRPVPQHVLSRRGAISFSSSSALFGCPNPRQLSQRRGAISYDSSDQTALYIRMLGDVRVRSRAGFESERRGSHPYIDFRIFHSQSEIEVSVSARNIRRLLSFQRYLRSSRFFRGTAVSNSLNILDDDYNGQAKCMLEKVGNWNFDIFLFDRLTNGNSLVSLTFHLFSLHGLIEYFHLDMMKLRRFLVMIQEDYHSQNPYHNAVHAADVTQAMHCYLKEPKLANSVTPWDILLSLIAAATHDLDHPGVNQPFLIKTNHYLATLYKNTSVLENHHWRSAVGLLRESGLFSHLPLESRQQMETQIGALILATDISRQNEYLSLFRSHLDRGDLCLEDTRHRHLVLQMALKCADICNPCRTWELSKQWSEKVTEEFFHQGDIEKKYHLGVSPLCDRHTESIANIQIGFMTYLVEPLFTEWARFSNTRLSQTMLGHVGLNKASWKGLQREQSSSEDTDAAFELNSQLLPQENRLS
Chain of PDE2A (O00408 whole entry, species assumed): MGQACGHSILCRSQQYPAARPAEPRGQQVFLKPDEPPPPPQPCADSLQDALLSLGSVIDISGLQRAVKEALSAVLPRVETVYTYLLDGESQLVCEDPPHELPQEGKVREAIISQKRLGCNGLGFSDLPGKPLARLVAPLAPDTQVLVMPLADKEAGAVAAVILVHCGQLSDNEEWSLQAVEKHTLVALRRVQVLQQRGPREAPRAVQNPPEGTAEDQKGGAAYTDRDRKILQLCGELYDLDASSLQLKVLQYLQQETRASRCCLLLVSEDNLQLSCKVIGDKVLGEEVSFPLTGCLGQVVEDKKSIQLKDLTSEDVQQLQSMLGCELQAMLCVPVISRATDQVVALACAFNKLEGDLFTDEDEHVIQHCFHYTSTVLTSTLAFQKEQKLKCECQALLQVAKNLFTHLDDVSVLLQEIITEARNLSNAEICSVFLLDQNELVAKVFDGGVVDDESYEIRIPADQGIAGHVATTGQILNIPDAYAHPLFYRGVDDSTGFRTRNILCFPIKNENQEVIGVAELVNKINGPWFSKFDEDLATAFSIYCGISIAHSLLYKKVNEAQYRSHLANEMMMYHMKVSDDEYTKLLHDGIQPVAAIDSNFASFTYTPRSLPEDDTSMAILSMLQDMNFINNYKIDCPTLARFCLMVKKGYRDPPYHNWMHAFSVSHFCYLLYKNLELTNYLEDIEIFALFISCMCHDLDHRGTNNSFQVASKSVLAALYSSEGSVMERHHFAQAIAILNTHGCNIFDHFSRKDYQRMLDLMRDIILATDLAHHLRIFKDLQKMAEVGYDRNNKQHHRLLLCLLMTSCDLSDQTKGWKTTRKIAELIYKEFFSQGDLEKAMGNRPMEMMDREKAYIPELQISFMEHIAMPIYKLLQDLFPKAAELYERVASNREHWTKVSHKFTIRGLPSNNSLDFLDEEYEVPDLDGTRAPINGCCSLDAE
Chain of PDE10A1 (Q9Y233 1-779 isoform Q9Y233-1, species assumed): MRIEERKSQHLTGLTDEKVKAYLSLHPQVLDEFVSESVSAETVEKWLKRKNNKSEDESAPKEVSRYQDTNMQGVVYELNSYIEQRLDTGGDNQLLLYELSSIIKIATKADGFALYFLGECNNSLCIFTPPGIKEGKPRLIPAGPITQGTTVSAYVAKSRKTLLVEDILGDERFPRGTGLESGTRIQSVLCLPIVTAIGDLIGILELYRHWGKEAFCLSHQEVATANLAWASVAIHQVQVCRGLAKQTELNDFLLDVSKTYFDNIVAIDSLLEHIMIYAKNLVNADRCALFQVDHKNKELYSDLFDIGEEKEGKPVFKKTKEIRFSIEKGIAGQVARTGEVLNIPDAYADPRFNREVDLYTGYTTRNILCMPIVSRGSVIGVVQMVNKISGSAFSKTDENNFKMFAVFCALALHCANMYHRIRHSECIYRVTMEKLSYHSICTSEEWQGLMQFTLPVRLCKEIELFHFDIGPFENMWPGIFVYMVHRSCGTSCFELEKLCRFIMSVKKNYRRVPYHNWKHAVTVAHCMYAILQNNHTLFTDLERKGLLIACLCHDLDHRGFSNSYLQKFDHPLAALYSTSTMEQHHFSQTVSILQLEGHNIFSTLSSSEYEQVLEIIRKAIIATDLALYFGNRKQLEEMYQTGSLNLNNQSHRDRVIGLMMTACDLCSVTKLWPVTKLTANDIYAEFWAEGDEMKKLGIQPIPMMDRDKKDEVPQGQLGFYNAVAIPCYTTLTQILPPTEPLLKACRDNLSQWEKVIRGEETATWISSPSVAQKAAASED

As to `CCCCCCc1ccc2c(c1NC(=O)CCCCl)C(=O)N([C@H](CS(C)(=O)=O)c1ccc(OC)c(OCC)c1)C2=O` [Example 1, (S)-2-[1-(3-ethoxy-4-methoxyphenyl)-2-alkylsulfonylethyl]-4-(γ-chlorobutyramido)-5-hexyl isoindoline-1,3-diketone], at PDE4D3, the IC50 fell in the range of 50 to 200 nM.
Same read-out and setting: to `CCCC/C=C/c1ccc2c(c1NC(=O)CCCCl)C(=O)N([C@H](CS(C)(=O)=O)c1ccc(OC)c(OCC)c1)C2=O` [Example 2, (S)-2-[1-(3-ethoxy-4-methoxyphenyl)-2-alkylsulfonylethyl]-4-(γ-chlorobutyramido)-5-hexene (−1) yl isoindoline-1,3-diketone] belongs 10 to 50 nM.
Compound `CCCCCCCCc1cc(NC(=O)C2CC2)c2c(c1)C(=O)N([C@H](CS(C)(=O)=O)c1ccc(OC)c(OCC)c1)C2=O` [Example 3, (S)-2-[1-(3-ethoxy-4-methoxyphenyl)-2-alkylsulfonylethyl]-4-cyclopropanamido-5-octyl isoindoline-1,3-diketone] registered an IC50 on PDE4D3 above 200 nM.
Still for that read-out and setting: then `CCCCCc1ccc(CNC(C)=O)c2c1C(=O)N([C@H](CS(C)(=O)=O)c1ccc(OC)c(OCC)c1)C2=O` [Example 4, (S)-2-[1-(3-ethoxy-4-methoxyphenyl)-2-alkylsulfonylethyl]-4-acetamidomethyl-7-pentyl isoindoline-1,3-diketone], with 10 to 50 nM; and `CCCCCc1ccc(NC(=O)C2CC2)c2c1C(=O)N([C@H](CS(C)(=O)=O)c1ccc(OC)c(OCC)c1)C2=O` [Example 6, (S)-2-[1-(3-ethoxy-4-methoxyphenyl)-2-alkylsulfonylethyl]-4-cyclopropanamido-7-pentyl isoindoline-1,3-diketone], with 50 to 200 nM.
As to `CCCC#Cc1ccc(NC(C)=O)c2c1C(=O)N([C@H](CS(C)(=O)=O)c1ccc(OC)c(OCC)c1)C2=O` [Example 7], the inhibition at 1 µM at PDE2A (1 μM) was 0.08%; on PDE3B (1 μM) it was 1.81%; on PDE1C (1 μM) it was 6.8%; on PDE5A1 (1 μM) it was 0%; on PDE7A (1 μM), 3.87%; at PDE10A1 (1 μM) it was 0%. The inhibition at 10 µM on PDE2A (10 μM) is 2.65%; on PDE3B (10 μM), 0.06%; at PDE1C (10 μM), 26.5%; on PDE5A1 (10 μM), -2.87%; on PDE7A (10 μM), 15.5%; on PDE10A1 (10 μM) it was 1.3%. For the same compound, the IC50 against PDE4D3 lay in the range of 10 to 50 nM.
Regarding `CCCCCCCCCC(=O)Nc1cccc2c1C(=O)N([C@H](CS(C)(=O)=O)c1ccc(OC)c(OCC)c1)C2=O` [Example 8, (S)-2-[1-(3-ethoxy-4-methoxyphenyl)-2-alkylsulfonylethyl]-4-decanamido-7-pentenyl (−1) isoindoline-1,3-diketone], at PDE4D3, the IC50 was in the range of 50 to 200 nM.
For `CCCCCc1ccc(NC(=O)CCC)c2c1C(=O)N([C@H](CS(C)(=O)=O)c1ccc(OC)c(OCC)c1)C2=O` [Example 10, (S)-2-[1-(3-ethoxy-4-methoxyphenyl)-2-alkylsulfonylethyl]-4-butylamido-7-pentyl isoindoline-1,3-diketone], the IC50 at PDE4D3 fell in the range of 50 to 200 nM.
Same read-out and setting: then `CCCCCc1ccc(NC(=O)CC(C)C)c2c1C(=O)N([C@H](CS(C)(=O)=O)c1ccc(OC)c(OCC)c1)C2=O` [Example 11], with above 200 nM; and `CCCCCC(=O)Nc1ccc(CCCCC)c2c1C(=O)N([C@H](CS(C)(=O)=O)c1ccc(OC)c(OCC)c1)C2=O` [Example 12], with above 200 nM; and `CCCCCCCCCCCCCc1ccc(NC(C)=O)c2c1C(=O)N([C@H](CS(C)(=O)=O)c1ccc(OC)c(OCC)c1)C2=O` [Example 14, (S)-2-[1-(3-ethoxy-4-methoxyphenyl)-2-alkylsulfonylethyl]-4-acetamido-7-tridecyl isoindoline-1,3-diketone], with above 200 nM.
On the same count and under the same terms, to `CCCCCCCCCCCCCc1ccc(NC(=O)C2CC2)c2c1C(=O)N([C@H](CS(C)(=O)=O)c1ccc(OC)c(OCC)c1)C2=O` [Example 15, (S)-2-[1-(3-ethoxy-4-methoxyphenyl)-2-alkylsulfonylethyl]-4-cyclopropanamido-7-tridecyl isoindoline-1,3-diketone] belongs above 200 nM.
On the same count and under the same terms, to `CCCCCCCCCc1ccc(NC(=O)CCC)c2c1C(=O)N([C@H](CS(C)(=O)=O)c1ccc(OC)c(OCC)c1)C2=O` [Example 16, (S)-2-[1-(3-ethoxy-4-methoxyphenyl)-2-alkylsulfonylethyl]-4-butylamido-7-nonyl isoindoline-1,3-diketone] belongs above 200 nM; to `CCCCCCCCCc1ccc(NC(=O)C2CC2)c2c1C(=O)N([C@H](CS(C)(=O)=O)c1ccc(OC)c(OCC)c1)C2=O` [Example 17, (S)-2-[1-(3-ethoxy-4-methoxyphenyl)-2-alkylsulfonylethyl]-4-cyclopropanamido-7-nonyl isoindoline-1,3-diketone], above 200 nM; to `CCCCCCCCCc1ccc(NC(=O)CC)c2c1C(=O)N([C@H](CS(C)(=O)=O)c1ccc(OC)c(OCC)c1)C2=O` [Example 18, (S)-2-[1-(3-ethoxy-4-methoxyphenyl)-2-alkylsulfonylethyl]-4-propanamido-7-nonyl isoindoline-1,3-diketone], 50 to 200 nM.
`CCCCCCCCCCCCCc1ccc(NC(=O)CC)c2c1C(=O)N([C@H](CS(C)(=O)=O)c1ccc(OC)c(OCC)c1)C2=O` [Example 19, (S)-2-[1-(3-ethoxy-4-methoxyphenyl)-2-alkylsulfonylethyl]-4-propanamido-7-tridecyl isoindoline-1,3-diketone] returned an IC50 against PDE4D3 above 200 nM.
On the same count and under the same terms, then `CCCCCCc1ccc(NC(=O)CCCCl)c2c1C(=O)N([C@H](CS(C)(=O)=O)c1ccc(OC)c(OCC)c1)C2=O` [Example 20, (S)-2-[1-(3-ethoxy-4-methoxyphenyl)-2-alkylsulfonylethyl]-4-(γ-chlorobutyramido)-7-hexyl isoindoline-1,3-diketone], with 50 to 200 nM; and `CCCCCCCc1ccc(NC(=O)CCCCl)c2c1C(=O)N([C@H](CS(C)(=O)=O)c1ccc(OC)c(OCC)c1)C2=O` [Example 21, (S)-2-[1-(3-ethoxy-4-methoxyphenyl)-2-alkylsulfonylethyl]-4-(γ-chlorobutyramido)-7-heptyl isoindoline-1,3-diketone], with above 200 nM.
On the same count and under the same terms, to `CCCCCCCCc1ccc(NC(=O)CCCCl)c2c1C(=O)N([C@H](CS(C)(=O)=O)c1ccc(OC)c(OCC)c1)C2=O` [Example 22, (S)-2-[1-(3-ethoxy-4-methoxyphenyl)-2-alkylsulfonylethyl]-4-(γ-chlorobutyramido)-7-octyl isoindoline-1,3-diketone] belongs above 200 nM.
`CCCCCCc1ccc2c(c1NC(=O)CC)C(=O)N([C@H](CS(C)(=O)=O)c1ccc(OC)c(OCC)c1)C2=O` [Example 23, (S)-2-[1-(3-ethoxy-4-methoxyphenyl)-2-alkylsulfonylethyl]-4-propanamido-6-hexyl isoindoline-1,3-diketone] gave an IC50 against PDE4D3 of 50 to 200 nM.
Same read-out and setting: to `CCCCc1ccc(NC(=O)CCl)c2c1C(=O)N([C@H](CS(C)(=O)=O)c1ccc(OC)c(OCC)c1)C2=O` [Example 26, (S)-2-[1-(3-ethoxy-4-methoxyphenyl)-2-alkylsulfonylethyl]-4-chloroacetamido-7-butyl isoindoline-1,3-diketone] belongs 10 to 50 nM.
In turn, `CCCCCc1ccc(NC(=O)CO)c2c1C(=O)N([C@H](CS(C)(=O)=O)c1ccc(OC)c(OCC)c1)C2=O` [Example 30] gave an IC50 on PDE4D3 of 50 to 200 nM.
Same read-out and setting: then `CCCCCc1ccc(NC(=O)COC)c2c1C(=O)N([C@H](CS(C)(=O)=O)c1ccc(OC)c(OCC)c1)C2=O` [Example 31], with 50 to 200 nM.

The values above are taken from patent US20240254082A1, “Substituted Isoindoline-1, 3-diketone PDE4 Inhibitor and Pharmaceutical Application Thereof” (SUZHOU INTRAGRAND PHARMA CO., LTD, priority 2021, published 2024).
